Test results from US20070148448A1, “Microencapsulated delivery vehicles including cooling agents” (Kimberly-Clark Worldwide, Inc., priority 2005, published 2007).

Test system: Methicillin-resistant Staphylococcus aureus
Conditions: 0.005% (by weight) active PHMB
Protocol: This Example utilized 1.5-milliliter tubes containing a 1-milliliter blend of phosphate-buffered saline (pH 7.2) and 5% (w/v) bovine serum albumin soil. The tubes were placed in electric heat blocks set for 22° C., 30° C., 40° C. and 50° C., respectively. The tubes remained in the electric heat blocks for approximately 10 minutes.
Duplicate tubes without PHMB at each temperature were also made.
All of the tubes were then placed back into the heat blocks at their respective temperatures. […] The letheen samples were then plated in duplicate on Tryptic Soy agar plates using a WASP2 spiral plater (commercially available from Don Whitley Scientific, Ltd., Yorkshire, United Kingdom).
After 48 hours, the plates were evaluated using a total plate count to determine the biocidal efficacy of each sample.

Which “difference in efficacy between 22° C. and 50° C.” value does the source give for polyhexamethylene biguanide [PHMB] here?
Its value is “greater than 1.4 LOG,o”.
